{"source": "PubChem BioAssay AID588667", "about": "(The Scripps Research Institute Molecular Screening Center, 2011)", "target": "Epidermal growth factor receptor (Homo sapiens) (UniProt P00533)", "sequence (P00533 whole entry, looked up)": "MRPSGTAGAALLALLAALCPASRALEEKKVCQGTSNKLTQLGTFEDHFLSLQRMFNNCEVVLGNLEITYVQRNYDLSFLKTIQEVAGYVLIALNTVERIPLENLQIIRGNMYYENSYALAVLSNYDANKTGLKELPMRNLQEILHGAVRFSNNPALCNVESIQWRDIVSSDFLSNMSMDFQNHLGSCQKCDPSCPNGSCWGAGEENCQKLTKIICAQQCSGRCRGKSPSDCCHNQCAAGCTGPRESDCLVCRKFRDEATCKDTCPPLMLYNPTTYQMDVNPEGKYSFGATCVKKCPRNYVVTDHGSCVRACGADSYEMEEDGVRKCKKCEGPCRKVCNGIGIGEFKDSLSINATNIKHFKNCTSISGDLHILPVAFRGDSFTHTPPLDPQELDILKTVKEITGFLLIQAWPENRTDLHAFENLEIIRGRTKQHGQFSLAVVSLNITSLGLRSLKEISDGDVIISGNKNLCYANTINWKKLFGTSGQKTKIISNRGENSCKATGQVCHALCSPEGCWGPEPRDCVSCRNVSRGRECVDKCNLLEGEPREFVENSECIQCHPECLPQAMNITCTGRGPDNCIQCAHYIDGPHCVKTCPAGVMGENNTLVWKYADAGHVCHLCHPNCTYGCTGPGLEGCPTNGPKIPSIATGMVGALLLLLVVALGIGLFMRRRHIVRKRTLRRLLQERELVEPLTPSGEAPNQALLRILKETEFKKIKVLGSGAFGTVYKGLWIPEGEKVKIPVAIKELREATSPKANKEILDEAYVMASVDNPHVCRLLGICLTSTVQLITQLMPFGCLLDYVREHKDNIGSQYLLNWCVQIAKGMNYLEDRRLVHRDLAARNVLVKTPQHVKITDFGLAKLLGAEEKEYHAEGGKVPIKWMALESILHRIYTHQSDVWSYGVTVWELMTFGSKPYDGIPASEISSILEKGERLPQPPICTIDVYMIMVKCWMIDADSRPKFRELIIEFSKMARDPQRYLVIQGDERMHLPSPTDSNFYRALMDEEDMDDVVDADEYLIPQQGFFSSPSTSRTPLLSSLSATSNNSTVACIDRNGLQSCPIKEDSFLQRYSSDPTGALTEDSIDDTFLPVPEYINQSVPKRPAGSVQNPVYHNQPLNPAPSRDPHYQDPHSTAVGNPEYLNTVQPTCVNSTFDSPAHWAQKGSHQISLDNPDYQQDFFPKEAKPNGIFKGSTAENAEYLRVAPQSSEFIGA", "assay": "total EGFR protein level reduction, late-stage follow-up, counter-screen for KLF5 inhibitor project, SW620 cells, chemiluminescent western blot, powder samples (AID 588667)", "conditions": "24 h, at 10 µM; for inhibition: stronger effect = higher value; for signed fold change of EGFR band vs DMSO (negative = fold decrease; more negative = more active): measured here: EGFR band fold change vs DMSO"}
{"smiles": "CN(C(=O)CNC(=O)/C=C/c1cccc(Cl)c1)C1CCS(=O)(=O)C1", "note": "(stereo unspecified)", "values": [{"measurement": "inhibition", "value": 31.7, "unit": "%"}, {"measurement": "signed fold change of EGFR band vs DMSO (negative = fold decrease; more negative = more active)", "value": -1.46}]}
{"smiles": "CN(C(=O)CNC(=O)/C=C/c1cccc(Cl)c1)C1CCS(=O)(=O)CC1", "values": [{"measurement": "inhibition", "value": 87.1, "unit": "%"}, {"measurement": "signed fold change of EGFR band vs DMSO (negative = fold decrease; more negative = more active)", "value": -7.78}]}
{"smiles": "CN(C(=O)COC(=O)/C=C/c1cccc([N+](=O)[O-])c1)C1CCS(=O)(=O)C1", "note": "(stereo unspecified)", "values": [{"measurement": "inhibition", "value": 53.3, "unit": "%"}, {"measurement": "signed fold change of EGFR band vs DMSO (negative = fold decrease; more negative = more active)", "value": -2.14}]}
